Molecular target: T1, hNK2 receptor (Homo sapiens, UniProt P21452)
T1 construct: host or cells: CHO cells
T1 sequence (P21452 1-398): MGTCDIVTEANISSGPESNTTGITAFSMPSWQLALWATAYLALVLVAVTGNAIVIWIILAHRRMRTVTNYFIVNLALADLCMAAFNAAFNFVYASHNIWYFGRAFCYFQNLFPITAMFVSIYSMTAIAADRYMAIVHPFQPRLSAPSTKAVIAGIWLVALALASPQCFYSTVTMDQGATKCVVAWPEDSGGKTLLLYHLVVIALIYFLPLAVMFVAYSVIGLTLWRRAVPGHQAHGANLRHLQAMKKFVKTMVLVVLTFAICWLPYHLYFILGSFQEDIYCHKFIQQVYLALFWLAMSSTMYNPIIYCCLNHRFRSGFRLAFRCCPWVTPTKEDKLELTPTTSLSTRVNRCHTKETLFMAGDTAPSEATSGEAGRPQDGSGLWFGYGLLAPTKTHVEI
Experiment: Radio-ligand ([125I]-NKA) receptor binding inhibitory activity using membrane fraction of hNK2 receptor-expressing CHO cell
Details: membrane fraction of hNK2 receptor-expressing CHO cells, 25° C., 30 min
Procedure, shortened: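 Membranes from hNK2-expressing CHO cells (20 μg/mL suspension) incubated with test compound and [125I]-NKA ([…] solution as added) in Tris-HCl pH 7.4 with BSA, protease inhibitors, 3 mM MnCl2, 25 °C, 30 min. Bound radioactivity by GF/C filtration and scintillation; inhibition expressed relative to specific binding (total minus unlabeled-NKA non-specific).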

IC50	SMILES
< 1 nM	COC[C@@H]1Nc2ccccc2[C@H]2[C@@H]1CCN2C(=O)[C@H]1CCCC[C@H]1NC(=O)c1cc2ccccc2[nH]1 [Example 229, N-((1R,2S)-2-{[(3aR,4R,9bR)-4-(Methoxymethyl)-2,3,3a,4,5,9b-hexahydro-1H-pyrrolo[3,2-c]quinolin-1-yl]carbonyl}cyclohexyl)-4H-indole-2-carboxamide]
< 10 nM	COC[C@@H]1Nc2ccccc2[C@H]2[C@@H]1CCN2C(=O)[C@H]1CCCC[C@H]1NC(=O)c1ccccc1C#N [Example 232, 2-Cyano-N-((1R,2S)-2-{[(3aR,4R,9bR)-4-(methoxymethyl)-2,3,3a,4,5,9b-hexahydro-1H-pyrrolo[3,2-c]quinolin-1-yl]carbonyl}cyclohexyl)benzamide]
< 10 nM	COC[C@@H]1Nc2ccccc2[C@H]2[C@@H]1CCN2C(=O)[C@H]1CCCC[C@H]1NC(=O)c1cccc(C#N)c1 [Example 233, 3-Cyano-N-((1R,2S)-2-{[(3aR,4R,9bR)-4-(methoxymethyl)-2,3,3a,4,5,9b-hexahydro-1H-pyrrolo[3,2-c]quinolin-1-yl]carbonyl}cyclohexyl)benzamide]
< 1 nM	COC[C@@H]1Nc2ccccc2[C@H]2[C@@H]1CCN2C(=O)[C@H]1CCCC[C@H]1NC(=O)c1ccc(OC(F)F)cc1 [Example 234, 4-(Difluoromethoxy)-N-((1R,2S)-2-{[(3aR,4R,9bR)-4-(methoxymethyl)-2,3,3a,4,5,9b-hexahydro-1H-pyrrolo[3,2-c]quinolin-1-yl]carbonyl}cyclohexyl)benzamide]
< 1 nM	COC[C@@H]1Nc2ccccc2[C@H]2[C@@H]1CCN2C(=O)[C@H]1CCCC[C@H]1NC(=O)c1nc2ccccc2[nH]1 [Example 237, N-((1R,2S)-2-{[(3aR,4R,9bR)-4-(Methoxymethyl)-2,3,3a,4,5,9b-hexahydro-1H-pyrrolo[3,2-c]quinolin-1-yl]carbonyl}cyclohexyl)-1H-benzimidazole-2-carboxamide]
< 10 nM	COC[C@@H]1Nc2ccccc2[C@H]2[C@@H]1CCN2C(=O)[C@H]1CCCC[C@H]1NC(=O)CNc1ccccc1 [Example 238, N^1-((1R,2S)-2-{[(3aR,4R,9bR)-4-(Methoxymethyl)-2,3,3a,4,5,9b-hexahydro-1H-pyrrolo[3,2-c]quinolin-1-yl]carbonyl}cyclohexyl)-N^2-phenylglycinamide]
< 1 nM	CNc1ccc(C(=O)N[C@@H]2CCCC[C@@H]2C(=O)N2CC[C@@H]3[C@H](COC)Nc4ccccc4[C@@H]32)cc1 [Example 239, N-((1R,2S)-2-{[(3aR,4R,9bR)-4-(Methoxymethyl)-2,3,3a,4,5,9b-hexahydro-1H-pyrrolo[3,2-c]quinolin-1-yl]carbonyl}cyclohexyl)-4-(methylamino)benzamide]
< 10 nM	COC[C@@H]1Nc2ccccc2[C@H]2[C@@H]1CCN2C(=O)[C@H]1CCCC[C@H]1NC(=O)c1cccc(N(C)C)c1 [Example 241, 3-(Dimethylamino)-N-((1R,2S)-2-{[(3aR,4R,9bR)-4-(methoxymethyl)-2,3,3a,4,5,9b-hexahydro-1H-pyrrolo[3,2-c]quinolin-1-yl]carbonyl}cyclohexyl)benzamide]
< 10 nM	COC[C@@H]1Nc2ccccc2[C@H]2[C@@H]1CCN2C(=O)[C@H]1CCCC[C@H]1NC(=O)c1c[nH]c2ccccc12 [Example 244, N-((1R,2S)-2-{[(3aR,4R,9bR)-4-(Methoxymethyl)-2,3,3a,4,5,9b-hexahydro-1H-pyrrolo[3,2-c]quinolin-1-yl]carbonyl}cyclohexyl)-1H-indole-3-carboxamide]
< 10 nM	COC[C@@H]1Nc2ccccc2[C@H]2[C@@H]1CCN2C(=O)[C@H]1CCCC[C@H]1NC(=O)c1ccc(S(N)(=O)=O)cc1 [Example 245, 4-(Aminosulfonyl)-N-((1R,2S)-2-{[(3aR,4R,9bR)-4-(methoxymethyl)-2,3,3a,4,5,9b-hexahydro-1H-pyrrolo[3,2-c]quinolin-1-yl]carbonyl}cyclohexyl)benzamide]
< 10 nM	COC[C@@H]1Nc2ccccc2[C@H]2[C@@H]1CCN2C(=O)[C@H]1CCCC[C@H]1NC(=O)c1ccc2nccnc2c1 [Example 246, N-((1R,2S)-2-{[(3aR,4R,9bR)-4-(Methoxymethyl)-2,3,3a,4,5,9b-hexahydro-1H-pyrrolo[3,2-c]quinolin-1-yl]carbonyl}cyclohexyl)quinoxaline-6-carboxamide]
< 10 nM	COC[C@@H]1Nc2ccccc2[C@H]2[C@@H]1CCN2C(=O)[C@H]1CCCC[C@H]1NC(=O)c1ccc2ccccc2n1 [Example 247, N-((1R,2S)-2-{[(3aR,4R,9bR)-4-(Methoxymethyl)-2,3,3a,4,5,9b-hexahydro-1H-pyrrolo[3,2-c]quinolin-1-yl]carbonyl}cyclohexyl)quinoline-2-carboxamide]
< 1 nM	COC[C@@H]1Nc2ccccc2[C@H]2[C@@H]1CCN2C(=O)[C@H]1CCCC[C@H]1NC(=O)c1ccc2c(c1)CCO2 [Example 248, N-((1R,2S)-2-{[(3aR,4R,9bR)-4-(Methoxymethyl)-2,3,3a,4,5,9b-hexahydro-1H-pyrrolo[3,2-c]quinolin-1-yl]carbonyl}cyclohexyl)-2,3-dihydro-1-benzofuran-5-carboxamide]
< 10 nM	COC[C@@H]1Nc2ccccc2[C@H]2[C@@H]1CCN2C(=O)[C@H]1CCCC[C@H]1NC(=O)c1onc2ccccc12 [Example 249, N-((1R,2S)-2-{[(3aR,4R,9bR)-4-(Methoxymethyl)-2,3,3a,4,5,9b-hexahydro-1H-pyrrolo[3,2-c]quinolin-1-yl]carbonyl}cyclohexyl)-2,1-benzisoxazole-3-carboxamide]
< 1 nM	COC[C@@H]1Nc2ccccc2[C@H]2[C@@H]1CCN2C(=O)[C@H]1CCCC[C@H]1NC(=O)c1ccc(-n2ccnc2)cc1 [Example 250, 4-(1H-Imidazol-1-yl)-N-((1R,2S)-2-{[(3aR,4R,9bR)-4-(methoxymethyl)-2,3,3a,4,5,9b-hexahydro-1H-pyrrolo[3,2-c]quinolin-1-yl]carbonyl}cyclohexyl)benzamide]
< 1 nM	COC[C@@H]1Nc2ccccc2[C@H]2[C@@H]1CCN2C(=O)[C@H]1CCCC[C@H]1NC(=O)c1ccc(N2N=C(C)CC2=O)cc1 [Example 252, N-((1R,2S)-2-{[(3aR,4R,9bR)-4-(Methoxymethyl)-2,3,3a,4,5,9b-hexahydro-1H-pyrrolo[3,2-c]quinolin-1-yl]carbonyl}cyclohexyl)-4-(3-methyl-5-oxo-4,5-dihydro-1H-pyrazol-1-yl)benzamide]
< 10 nM	COC[C@@H]1Nc2ccccc2[C@H]2[C@@H]1CCN2C(=O)[C@H]1CCCC[C@H]1NC(=O)c1ccc2ncsc2c1 [Example 253, N-((1R,2S)-2-{[(3aR,4R,9bR)-4-(Methoxymethyl)-2,3,3a,4,5,9b-hexahydro-1H-pyrrolo[3,2-c]quinolin-1-yl]carbonyl}cyclohexyl)-1,3-benzothiazole-6-carboxamide]
< 1 nM	COC[C@@H]1Nc2ccccc2[C@H]2[C@@H]1CCN2C(=O)[C@H]1CCCC[C@H]1NC(=O)c1ccc(N2CCCCC2)nc1 [Example 254, N-((1R,2S)-2-{[(3aR,4R,9bR)-4-(Methoxymethyl)-2,3,3a,4,5,9b-hexahydro-1H-pyrrolo[3,2-c]quinolin-1-yl]carbonyl}cyclohexyl)-6-piperidin-1-ylnicotinamide]
< 1 nM	COC[C@@H]1Nc2ccccc2[C@H]2[C@@H]1CCN2C(=O)[C@H]1CCCC[C@H]1NC(=O)c1ccc(C#N)c(C)c1 [Example 256, 4-Cyano-N-((1R,2S)-2-{[(3aR,4R,9bR)-4-(methoxymethyl)-2,3,3a,4,5,9b-hexahydro-1H-pyrrolo[3,2-c]quinolin-1-yl]carbonyl}cyclohexyl)-3-methylbenzamide]
< 1 nM	COC[C@@H]1Nc2ccccc2[C@H]2[C@@H]1CCN2C(=O)[C@H]1CCCC[C@H]1NC(=O)c1ccc(-n2cccc2)cc1 [Example 258, N-((1R,2S)-2-{[(3aR,4R,9bR)-4-(Methoxymethyl)-2,3,3a,4,5,9b-hexahydro-1H-pyrrolo[3,2-c]quinolin-1-yl]carbonyl}cyclohexyl)-4-(1H-pyrrol-1-yl)benzamide]
< 10 nM	COC[C@@H]1Nc2ccccc2[C@H]2[C@@H]1CCN2C(=O)[C@H]1CCCC[C@H]1NC(=O)c1ccc2[nH]cnc2c1 [Example 259, N-((1R,2S)-2-{[(3aR,4R,9bR)-4-(Methoxymethyl)-2,3,3a,4,5,9b-hexahydro-1H-pyrrolo[3,2-c]quinolin-1-yl]carbonyl}cyclohexyl)-1H-benzimidazole-5-carboxamide]
< 1 nM	COC[C@@H]1Nc2ccccc2[C@H]2[C@@H]1CCN2C(=O)[C@H]1CCCC[C@H]1NC(=O)c1ccc(-c2csc(C)n2)cc1 [Example 261, N-((1R,2S)-2-{[(3aR,4R,9bR)-4-(Methoxymethyl)-2,3,3a,4,5,9b-hexahydro-1H-pyrrolo[3,2-c]quinolin-1-yl]carbonyl}cyclohexyl)-4-(2-methyl-1,3-thiazol-4-yl)benzamide]
< 10 nM	COC[C@@H]1Nc2ccccc2[C@H]2[C@@H]1CCN2C(=O)[C@H]1CCCC[C@H]1NC(=O)c1ccc(CNC(C)=O)cc1 [Example 263, 4-[(Acetylamino)methyl]-N-((1R,2S)-2-{[(3aR,4R,9bR)-4-(methoxymethyl)-2,3,3a,4,5,9b-hexahydro-1H-pyrrolo[3,2-c]quinolin-1-yl]carbonyl}cyclohexyl)benzamide]

— US7943770B2, “Fused quinoline derivative and use thereof” (Takeda Pharmaceutical Company Limited, priority 2004, dated 2011)
